In US9062289B2, “Differentiation of primate pluripotent stem cells to cardiomyocyte-lineage cells” (Asterias Biotherapeutics, Inc., priority 2005, dated 2015) one finds chronotropic effect and contractile activity data, which are given here for three compounds.

Each structure is given as a SMILES string.

This assay relates to primate pluripotent stem cell-derived cardiomyocytes. The assay can be described thus: Contractile activity of primate pluripotent stem cell-derived cardiomyocytes. The conditions noted are these: spontaneous periodic contractions in culture. The format is cell-based. As to the method: Under appropriate circumstances, primate pluripotent stem cell-derived cardiomyocytes often show spontaneous periodic contractile activity. This means that when they are cultured in a suitable tissue culture environment with an appropriate Ca^++ concentration and electrolyte balance, the cells can be observed to contract across one axis of the cell, and then release from contraction, without having to add any additional components to the culture medium. The contractions are periodic, which means that they repeat on a regular or irregular basis, at a frequency between ˜6 and 200 contractions per minute, and often between ˜20 and ˜90 contractions per minute in normal buffer (FIG. 2). Individual cells may show spontaneous periodic contractile activity on their own, or they may show spontaneous periodic contractile activity in concert with neighboring cells in a tissue, cell aggregate, or cultured cell mass.
The contractile activity of the cells can be characterized according to the influence of culture conditions on the nature and frequency of contractions. Compounds that reduce available Ca^++ concentration or otherwise interfere with transmembrane transport of Ca^++ often affect contractile activity. […] Further characterization of functional properties of the cell can involve characterizing channels for Na^+, K^+, and Ca^++. Electrophysiology can be studied by patch clamp analysis for cardiomyocyte like action potentials. See Igelmund et al., Pflugers Arch. 437:669, 1999; Wobus et al., Ann. N.Y. Acad. Sci. 27:752, 1995; and Doevendans et al., J. Mol. Cell Cardiol. 32:839, 2000.

For `CC(C)NCC(O)c1ccc(O)c(O)c1` (stereo not drawn) [isoprenaline], the chronotropic effect result was “positive chronotropic effect”.

With `CNC[C@H](O)c1cccc(O)c1` [phenylephrine], the chronotropic effect result was “positive chronotropic effect”.

With `COc1ccc([C@@H]2Sc3ccccc3N(CCN(C)C)C(=O)[C@@H]2OC(C)=O)cc1` [diltiazem], the contractile activity result was “inhibits contractile activity in a dose-dependent manner”.
